Source: PubChem BioAssay AID248 (DTP/NCI, 2004)
“And” between values parts separate entries of the source, which are not always exact repeats. Identical values can stand only once. Inconclusive results and toxic doses are left out. Cut-off read from the data, not from the text of the source: active = T/C of 150% or more; inactive = T/C below 125%.

Tested on: L1210 leukemia ip in BDF1 mice, survival T/C
Test: NCI In Vivo Anticancer Drug Screen. Data for tumor model L1210 Leukemia (intraperitoneal) in B6D2F1 (BDF1) mice
Conditions: endpoint: mean survival time, higher = longer survival
Procedure, shortened: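 Transplanted-tumor mice were given test agent; controls received vehicle only. Survival readings from the two groups were divided (treated over control).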

[1] = dose: 100.0 mg/kg/injection, schedule: Q04DX003 (ip), vehicle: saline with Tween-80
[2] = dose: 200.0 mg/kg/injection, schedule: Q04DX003 (ip), vehicle: saline with Tween-80
[3] = dose: 400.0 mg/kg/injection, schedule: Q04DX003 (ip), vehicle: saline with Tween-80
[4] = dose: 100.0 mg/kg/injection, schedule: Q04DX002 (ip), vehicle: saline
[5] = dose: 200.0 mg/kg/injection, schedule: Q04DX002 (ip), vehicle: saline
[6] = dose: 400.0 mg/kg/injection, schedule: Q04DX002 (ip), vehicle: saline
[7] = dose: 50.0 mg/kg/injection, schedule: Q01DX001 (ip), vehicle: saline
[8] = dose: 100.0 mg/kg/injection, schedule: Q01DX001 (ip), vehicle: saline
[9] = dose: 200.0 mg/kg/injection, schedule: Q01DX001 (ip), vehicle: saline
[10] = dose: 400.0 mg/kg/injection, schedule: Q01DX001 (ip), vehicle: saline
[11] = dose: 100.0 mg/kg/injection, schedule: Q01DX009 (ip), vehicle: Klucel (hydroxypropylcellulose) (HPC)
[12] = dose: 400.0 mg/kg/injection, schedule: Q01DX009 (ip), vehicle: Klucel (hydroxypropylcellulose) (HPC)
[13] = dose: 100.0 mg/kg/injection, schedule: Q04DX002 (ip), vehicle: saline with Tween-80
[14] = dose: 200.0 mg/kg/injection, schedule: Q04DX002 (ip), vehicle: saline with Tween-80
[15] = dose: 100.0 mg/kg/injection, schedule: Q04DX003 (ip), vehicle: Klucel (hydroxypropylcellulose) (HPC)
[16] = dose: 200.0 mg/kg/injection, schedule: Q01DX009 (ip), vehicle: Klucel (hydroxypropylcellulose) (HPC)
[17] = dose: 200.0 mg/kg/injection, schedule: Q04DX003 (ip), vehicle: Klucel (hydroxypropylcellulose) (HPC)
[18] = dose: 400.0 mg/kg/injection, schedule: Q04DX003 (ip), vehicle: Klucel (hydroxypropylcellulose) (HPC)
[19] = dose: 100.0 mg/kg/injection, schedule: Q01DX009 (ip), vehicle: saline with Tween-80
[20] = dose: 200.0 mg/kg/injection, schedule: Q01DX009 (ip), vehicle: saline with Tween-80

Measured: T/C

NNS(=O)(=O)c1ccc(N=Nc2ccccc2)cc1
inactive: [1] 90 % of control | [2] 93 % of control | [3] 97 % of control

CCSCCOc1c(C(C)(C)C)cc([N+](=O)[O-])c(C)c1[N+](=O)[O-]
inactive: [4] 103 % of control | [5] 100 % of control | [6] 106 % of control

COC(=O)c1cc(C)[nH]c2c(C)cc3nc4ccccc4c3c12
inactive: [7] 95 % of control | [8] 98 % of control | [9] 101 % of control | [10] 104 % of control

CCCC/C=N\NC(=S)NCCCCCCCCCCCCCCCCCC
inactive: dose: 200.0 mg/kg/injection, schedule: Q01DX Z (ip), vehicle: saline 94 % of control | dose: 300.0 mg/kg/injection, schedule: Q01DX Z (ip), vehicle: saline 103 % of control | dose: 450.0 mg/kg/injection, schedule: Q01DX Z (ip), vehicle: saline 95 % of control | dose: 675.0 mg/kg/injection, schedule: Q01DX Z (ip), vehicle: saline 90 % of control

CCOc1cc(OCC)c(OCC)cc1C=C(C#N)C#N
inactive: [11] 91 % of control | [12] 88 % of control

Cn1c(CCl)nc2c1c(=O)[nH]c(=O)n2C
inactive: dose: 100.0 mg/kg/injection, schedule: Q01DX001 (ip), vehicle: other 95 % of control

CCOc1nc(N)nc(-c2ccc(OC)cc2)c1Br
inactive: [13] 94 % of control | [14] 102 % of control | dose: 400.0 mg/kg/injection, schedule: Q04DX002 (ip), vehicle: saline with Tween-80 97 % of control

COc1ccc(-c2ccc(OC)c(OC)c2OC)c(N)c1
inactive: dose: 65.0 mg/kg/injection, schedule: Q01DX Z (ip), vehicle: carboxymethylcellulose (CMC) 93 % of control and 121 % of control | dose: 125.0 mg/kg/injection, schedule: Q01DX Z (ip), vehicle: carboxymethylcellulose (CMC) 94 % of control and 100 % of control | dose: 250.0 mg/kg/injection, schedule: Q01DX Z (ip), vehicle: carboxymethylcellulose (CMC) 93 % of control and 86 % of control | dose: 500.0 mg/kg/injection, schedule: Q01DX Z (ip), vehicle: carboxymethylcellulose (CMC) 112 % of control

CC(COC(=O)c1ccccc1)(COC(=O)c1ccccc1)COC(=O)c1ccccc1
inactive: [11] 96 % of control | [15] 113 % of control | [16] 104 % of control | [17] 99 % of control | [12] 107 % of control | [18] 96 % of control

Cc1nc(-c2ccc(N=Cc3ccc(N(CCOS(C)(=O)=O)CCOS(C)(=O)=O)cc3C)cc2)c(C)s1
inactive: dose: 5.0 mg/kg/injection, schedule: Q01DX009 (ip), vehicle: Klucel (hydroxypropylcellulose) (HPC) 120 % of control | dose: 10.0 mg/kg/injection, schedule: Q01DX009 (ip), vehicle: Klucel (hydroxypropylcellulose) (HPC) 120 % of control | dose: 20.0 mg/kg/injection, schedule: Q01DX001 (ip), vehicle: Klucel (hydroxypropylcellulose) (HPC) 121 % of control | dose: 26.6 mg/kg/injection, schedule: Q01DX001 (ip), vehicle: Klucel (hydroxypropylcellulose) (HPC) 108 % of control | dose: 40.0 mg/kg/injection, schedule: Q01DX001 (ip), vehicle: Klucel (hydroxypropylcellulose) (HPC) 119 % of control | dose: 60.0 mg/kg/injection, schedule: Q01DX001 (ip), vehicle: Klucel (hydroxypropylcellulose) (HPC) 111 % of control

OC(c1ccccc1)C1(O)C2CCC1C2 (centres undefined)
inactive: dose: 75.0 mg/kg/injection, schedule: Q04DX002 (ip), vehicle: Klucel (hydroxypropylcellulose) (HPC) 96 % of control | dose: 150.0 mg/kg/injection, schedule: Q04DX002 (ip), vehicle: Klucel (hydroxypropylcellulose) (HPC) 104 % of control | dose: 300.0 mg/kg/injection, schedule: Q04DX002 (ip), vehicle: Klucel (hydroxypropylcellulose) (HPC) 96 % of control

CCCOB(OCCC)OCCC
inactive: [7] 95 % of control | [8] 98 % of control | [9] 98 % of control | [10] 106 % of control

CC1C(=O)CC(C)(C)CC1=O
inactive: [19] 105 % of control | [20] 109 % of control | dose: 400.0 mg/kg/injection, schedule: Q01DX009 (ip), vehicle: saline with Tween-80 104 % of control

CCC[CH2][Sn]1([CH2]CCC)[O]C(=O)CCC(=O)[O]1
inactive: dose: 1.56 mg/kg/injection, schedule: Q01DX009 (ip), vehicle: Klucel (hydroxypropylcellulose) (HPC) 113 % of control | dose: 3.12 mg/kg/injection, schedule: Q01DX009 (ip), vehicle: Klucel (hydroxypropylcellulose) (HPC) 87 % of control

Cc1cc(Cl)ccc1NC(=O)Nc1ccc(Cl)c(Cl)c1
inactive: [15] 88 % of control | [17] 90 % of control | [18] 98 % of control and 88 % of control

COC1CCC(/C(C#N)=C/c2ccco2)CC1 (centres undefined)
inactive: [13] 97 % of control and 89 % of control | [14] 94 % of control and 99 % of control | dose: 800.0 mg/kg/injection, schedule: Q04DX002 (ip), vehicle: saline with Tween-80 103 % of control

CCOC(=O)CCC(NC(=O)c1ccc(N(C)C(=O)OCc2ccccc2)cc1)C(=O)OCC (centres undefined)
inactive: dose: 200.0 mg/kg/injection, schedule: Q01DX001 (ip), vehicle: carboxymethylcellulose (CMC) 100 % of control | dose: 400.0 mg/kg/injection, schedule: Q01DX001 (ip), vehicle: carboxymethylcellulose (CMC) 94 % of control

COc1ccc(C2(OC)Oc3cc(OC)ccc3C(=O)C2(O)OC)cc1 (centres undefined)
inactive: [7] 98 % of control | [8] 104 % of control

COc1ccccc1/C=c1\[nH]c(=O)/c(=C/c2ccccc2OC)[nH]c1=O
inactive: [11] 88 % of control | [15] 101 % of control | [16] 86 % of control | [17] 101 % of control | [12] 86 % of control | [18] 98 % of control

CCCCCCCCCCCCc1ccc(CSC(C(=O)OC)C(SCc2ccc(CCCCCCCCCCCC)cc2)C(=O)OC)cc1 (centres undefined)
inactive: dose: 100.0 mg/kg/injection, schedule: Q04DX003 (ip), vehicle: saline 103 % of control | dose: 200.0 mg/kg/injection, schedule: Q04DX003 (ip), vehicle: saline 101 % of control | dose: 400.0 mg/kg/injection, schedule: Q04DX003 (ip), vehicle: saline 94 % of control

NC(CSC(c1ccccc1)(c1ccccc1)c1ccc(CBr)cc1)C(=O)O (centres undefined)
inactive: dose: 50.0 mg/kg/injection, schedule: Q01DX009 (ip), vehicle: other 105 % of control | dose: 100.0 mg/kg/injection, schedule: Q01DX009 (ip), vehicle: other 115 % of control | dose: 200.0 mg/kg/injection, schedule: Q01DX009 (ip), vehicle: other 121 % of control

CCOC(CN1C(=O)c2ccccc2C1=O)OCC
inactive: dose: 50.0 mg/kg/injection, schedule: Q01DX009 (ip), vehicle: saline with Tween-80 96 % of control | [19] 96 % of control | [20] 93 % of control

c1nc([N+]23CCC(CC2)CC3)c2[nH]cnc2n1
inactive: dose: 5.0 mg/kg/injection, schedule: Q01DX001 (ip), vehicle: saline 111 % of control | dose: 10.0 mg/kg/injection, schedule: Q01DX001 (ip), vehicle: saline 103 % of control | dose: 20.0 mg/kg/injection, schedule: Q01DX001 (ip), vehicle: saline 113 % of control | dose: 40.0 mg/kg/injection, schedule: Q01DX001 (ip), vehicle: saline 97 % of control | dose: 80.0 mg/kg/injection, schedule: Q01DX001 (ip), vehicle: saline 108 % of control

Cc1ccc([N+](=O)[O-])cc1NC(=O)NCCCl
inactive: [1] 90 % of control | [2] 90 % of control | [3] 92 % of control

CNC(=O)Oc1coc(CCl)cc1=O
inactive: dose: 37.5 mg/kg/injection, schedule: Q01DX001 (ip), vehicle: other 106 % of control | dose: 75.0 mg/kg/injection, schedule: Q01DX001 (ip), vehicle: other 101 % of control | dose: 150.0 mg/kg/injection, schedule: Q01DX001 (ip), vehicle: other 104 % of control

CC1CCCCN1 (centres undefined)
inactive: [4] 105 % of control | [5] 94 % of control | [6] 112 % of control

CCOC(=O)C(=Cc1ccccc1Cl)C(=O)OCC
inactive: [11] 88 % of control | [15] 104 % of control | [16] 99 % of control | [17] 90 % of control

CCOC(=O)/C=C/c1cccc(O)c1
inactive: dose: 100.0 mg/kg/injection, schedule: Q01DX001 (ip), vehicle: gum acacia 106 % of control | dose: 200.0 mg/kg/injection, schedule: Q01DX001 (ip), vehicle: gum acacia 110 % of control | dose: 400.0 mg/kg/injection, schedule: Q01DX001 (ip), vehicle: gum acacia 97 % of control
